Where “and” joins values, the source holds several entries; their conditions need not be identical. Equal entries are not always repeated.
Key:
[1] = tested on: leup operon (leupeptin BGC) promoter in K. oxytoca ATCC 8724; test: GFP-based transcriptional reporter for the leup operon; type: cell-based, Klebsiella oxytoca; conditions: carbohydrate screen, M9 + casamino acid + 0.4% indicated sugar, 30 °C, 24 h
Source text: We previously examined a panel of 84 clinical K. oxytoca isolates (including recently renamed Klebsiella michiganensis isolates) for the presence of either the leup operon or npsB, an NRPS of the tilimycin/tilivalline gene cluster. […] While the roles of tilivalline and tilimycin in hemorrhagic colitis are well studied[8],[9], the operon for leupeptin biosynthesis is “silent” in K. oxytoca under typical laboratory culture conditions (i.e., leupeptin production is undetectable). Therefore, our study commenced by exploring growth conditions required to trigger leupeptin biosynthesis in K. oxytoca. To achieve this, we generated a green fluorescent protein (GFP)-based reporter system to monitor leup transcription in K. oxytoca ATCC 8724 (recently renamed as Klebsiella michiganensis (ATCC 8724), Fig. 1a). We utilized λ-red recombineering techniques[38] to replace the first biosynthetic gene (leupA) of the leupeptin BGC with a GFP-spectinomycin resistance cassette. […] Consequently, conditions that elicit transcription of the leupeptin BGC can be monitored by GFP fluorescence intensity.
5 mL of the leupeptin reporter strain was cultured aerobically in 10 g/L of LB (Becton Dickinson), yeast extract, GAM (HiMedia Laboratories), horse liver extract (HiMedia Laboratories), malt extract (VWR), meat extract (HiMedia Laboratories), YPD (Dot Scienticifc), brain heart infusion (Becton Dickinson), porcine mucin (Sigma-Aldrich, M1778), clostridial (Becton Dickinson), TSB (VWR), or casamino acid supplemented (5 g/L, VWR) M9 minimal salts (MP Biomedicals) at 30 °C for 24 h at 250 rpm. Cultures were lysed via sonication, centrifuged, and 150 µL of the supernatants were aliquoted into black well clear bottom 96 well plates. GFP fluorescence measurements were performed on a BioTek Synergy H1 plate reader with an excitation wavelength of 488 nm and an emission wavelength of 525 nm. For the carbohydrate screen, the leupeptin reporter strain was cultured in M9 minimal medium (MPbio) supplemented with casamino acid (5 g/L, VWR) and 0.4% indicated sugar aerobically at 30 °C for 24 h at 250 rpm.

HRH1 = biological target: T1, HRH1 (Homo sapiens, UniProt P35367); test: PRESTO-Tango GPCR screen and dose-response; type: cell-based; conditions: for HRH1 dose-response raw reporter signal (Fig. 5b source data): replicate wells
T1 construct: expressed in transfected cells; host or cells: HTLA cells (HEK293 line stably expressing β-arrestin-TEV and tTA-Luciferase)
Description: (§1) The PRESTO-Tango analyses were performed as previously published. Briefly, HTLA cells, a HEK293 cell line that stably expresses β-arrestin-TEV and tTA-Luciferase (a kind gift from Gilad Barnea, Brown University), were plated in 96-well tissue culture plates (Eppendorf) in DMEM containing 10% FBS and 1% Penicillin/Streptomycin. One day after plating (after reaching approximately 90% confluence), 200 ng per well GPCR-Tango plasmids[37] in 20 μL DMEM were individually mixed with 400 ng polyethylenimine (Polysciences) in an equal volume of DMEM and incubated for 20 min at room temperature before adding the transfection mixture to the HTLA cells. 16-24 h after transfection, medium was replaced with 180 μL fresh DMEM containing 1% Penicillin/Streptomycin and 10 mM HEPES and 20 μL of 3 or 3-Homo to reach a final concentration of 100 μM. Supernatants were aspirated 20 h after stimulation and 50 μl per well of Bright-Glo solution (Promega) diluted 20-fold with PBS containing 20 mM HEPES was added into each well. After 15 min incubation at room temperature, luminescence was quantified using a Spectramax i3x microplate reader (Molecular Devices). Activation fold for each sample was calculated by dividing relative luminescence units (RLU) for each condition by RLUs from PBS control. Dose response curves of each chemical were performed in a similar way with varying the ligand concentration from 10^−4 M to 10^−15 M.

HRH2 = biological target: T2, HRH2 (Homo sapiens, UniProt P25021); test: PRESTO-Tango GPCR screen and dose-response; type: cell-based; conditions: for HRH2 dose-response raw reporter signal (Fig. 5b source data): replicate wells
T2 construct: expressed in transfected cells; host or cells: HTLA cells (HEK293 line stably expressing β-arrestin-TEV and tTA-Luciferase)
Description: as §1

HRH3 = biological target: T3, HRH3 (Homo sapiens, UniProt Q9Y5N1); test: PRESTO-Tango GPCR screen and dose-response; type: cell-based; conditions: for HRH3 dose-response raw reporter signal (Fig. 5b source data): replicate wells
T3 construct: expressed in transfected cells; host or cells: HTLA cells (HEK293 line stably expressing β-arrestin-TEV and tTA-Luciferase)
Description: as §1

[2] = biological target: T4, histamine receptor H4 (HRH4) (Homo sapiens, UniProt Q9H3N8); test: PRESTO-Tango GPCR screen and dose-response; type: cell-based; conditions: for HRH4 dose-response raw reporter signal (Fig. 5b source data): replicate wells
T4 construct: expressed in transfected cells; host or cells: HTLA cells (HEK293 line stably expressing β-arrestin-TEV and tTA-Luciferase)
Description: as §1

T1 sequence (P35367 whole entry): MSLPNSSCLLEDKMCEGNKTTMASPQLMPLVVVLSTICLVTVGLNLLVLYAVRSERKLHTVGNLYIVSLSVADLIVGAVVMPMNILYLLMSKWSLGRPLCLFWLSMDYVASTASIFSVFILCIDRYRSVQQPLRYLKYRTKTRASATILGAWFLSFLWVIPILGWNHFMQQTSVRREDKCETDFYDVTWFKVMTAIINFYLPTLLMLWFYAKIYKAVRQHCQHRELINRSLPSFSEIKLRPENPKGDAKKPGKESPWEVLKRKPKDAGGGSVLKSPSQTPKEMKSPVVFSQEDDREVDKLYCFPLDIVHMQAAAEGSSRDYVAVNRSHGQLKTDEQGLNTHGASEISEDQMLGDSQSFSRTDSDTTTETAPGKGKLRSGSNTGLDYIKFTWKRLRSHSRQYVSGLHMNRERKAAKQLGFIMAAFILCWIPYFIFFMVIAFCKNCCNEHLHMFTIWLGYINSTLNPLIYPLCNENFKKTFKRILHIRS
T3 sequence (Q9Y5N1 whole entry): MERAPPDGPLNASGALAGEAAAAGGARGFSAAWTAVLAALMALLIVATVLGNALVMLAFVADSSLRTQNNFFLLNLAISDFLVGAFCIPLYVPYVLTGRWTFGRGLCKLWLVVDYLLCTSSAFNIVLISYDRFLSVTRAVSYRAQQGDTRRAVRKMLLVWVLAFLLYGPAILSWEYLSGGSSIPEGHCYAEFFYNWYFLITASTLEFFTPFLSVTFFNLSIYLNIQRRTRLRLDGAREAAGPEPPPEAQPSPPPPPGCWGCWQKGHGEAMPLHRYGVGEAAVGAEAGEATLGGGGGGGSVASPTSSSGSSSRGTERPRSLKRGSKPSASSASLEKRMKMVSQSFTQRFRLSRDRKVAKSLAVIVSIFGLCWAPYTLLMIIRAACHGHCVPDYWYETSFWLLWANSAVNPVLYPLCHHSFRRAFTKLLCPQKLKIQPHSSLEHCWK
T2 sequence (P25021 whole entry): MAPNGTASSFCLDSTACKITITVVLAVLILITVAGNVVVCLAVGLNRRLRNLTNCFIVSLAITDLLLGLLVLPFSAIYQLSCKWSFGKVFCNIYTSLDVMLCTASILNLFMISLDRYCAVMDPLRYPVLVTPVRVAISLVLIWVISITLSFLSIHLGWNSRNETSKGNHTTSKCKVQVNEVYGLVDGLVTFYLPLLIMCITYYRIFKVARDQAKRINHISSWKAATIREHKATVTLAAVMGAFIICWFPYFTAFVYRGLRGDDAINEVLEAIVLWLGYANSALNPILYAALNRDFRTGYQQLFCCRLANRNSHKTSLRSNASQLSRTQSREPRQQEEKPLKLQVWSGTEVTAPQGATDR
T4 sequence (Q9H3N8 whole entry): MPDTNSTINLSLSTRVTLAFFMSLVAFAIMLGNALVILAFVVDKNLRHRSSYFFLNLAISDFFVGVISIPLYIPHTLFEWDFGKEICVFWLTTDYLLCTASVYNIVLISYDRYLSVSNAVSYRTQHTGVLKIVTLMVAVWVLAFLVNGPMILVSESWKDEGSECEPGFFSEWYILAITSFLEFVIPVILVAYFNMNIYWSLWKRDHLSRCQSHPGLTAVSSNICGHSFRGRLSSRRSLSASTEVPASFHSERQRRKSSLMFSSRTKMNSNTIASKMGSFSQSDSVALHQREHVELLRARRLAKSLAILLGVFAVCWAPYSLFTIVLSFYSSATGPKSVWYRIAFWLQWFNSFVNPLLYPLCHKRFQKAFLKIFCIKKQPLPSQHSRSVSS

O=C[C@H](O)[C@@H](O)[C@H](O)CO [Xylose]
GFP fluorescence, GFP Strain + Media ([1]; leup GFP reporter strain): 9892 RFU
GFP fluorescence, WT + Media ([1]; wildtype K. oxytoca without reporter (background)): 5418 RFU

COC(=O)CCc1nc(Cc2ccccc2)c(CCC(=O)O)nc1Cc1ccccc1 [9-Me]
HRH1 dose-response raw reporter signal (Fig. 5b source data) (HRH1; Log(10)Conc (M) -4): 50545 and 47748
HRH1 dose-response raw reporter signal (Fig. 5b source data) (HRH1; Log(10)Conc (M) -5): 50057 and 47492
HRH1 dose-response raw reporter signal (Fig. 5b source data) (HRH1; Log(10)Conc (M) -6): 50434 and 47377
HRH1 dose-response raw reporter signal (Fig. 5b source data) (HRH1; Log(10)Conc (M) -7): 50075 and 47693
HRH1 dose-response raw reporter signal (Fig. 5b source data) (HRH1; Log(10)Conc (M) -8): 49488 and 47793
HRH1 dose-response raw reporter signal (Fig. 5b source data) (HRH1; Log(10)Conc (M) -9): 48159 and 46626
HRH1 dose-response raw reporter signal (Fig. 5b source data) (HRH1; Log(10)Conc (M) -10): 48713 and 47646
HRH1 dose-response raw reporter signal (Fig. 5b source data) (HRH1; Log(10)Conc (M) -11): 49358 and 47065
HRH1 dose-response raw reporter signal (Fig. 5b source data) (HRH1; Log(10)Conc (M) -12): 50278 and 46581
HRH1 dose-response raw reporter signal (Fig. 5b source data) (HRH1; Log(10)Conc (M) -13): 49874 and 48613
HRH1 dose-response raw reporter signal (Fig. 5b source data) (HRH1; Log(10)Conc (M) -14): 50243 and 49745
HRH1 dose-response raw reporter signal (Fig. 5b source data) (HRH1; Log(10)Conc (M) -15): 45927 and 43079
activity towards HRH1 (HRH1; PRESTO-Tango dose-response): no activity
HRH2 dose-response raw reporter signal (Fig. 5b source data) (HRH2; Log(10)Conc (M) -4): 83 and 65 and 100
HRH2 dose-response raw reporter signal (Fig. 5b source data) (HRH2; Log(10)Conc (M) -5): 41 and 50 and 56
HRH2 dose-response raw reporter signal (Fig. 5b source data) (HRH2; Log(10)Conc (M) -6): 56 and 47 and 32
HRH2 dose-response raw reporter signal (Fig. 5b source data) (HRH2; Log(10)Conc (M) -7): 65 and 62 and 35
HRH2 dose-response raw reporter signal (Fig. 5b source data) (HRH2; Log(10)Conc (M) -8): 97 and 47 and 41
HRH2 dose-response raw reporter signal (Fig. 5b source data) (HRH2; Log(10)Conc (M) -9): 41 and 35 and 77
HRH2 dose-response raw reporter signal (Fig. 5b source data) (HRH2; Log(10)Conc (M) -10): 38 and 80 and 41
HRH2 dose-response raw reporter signal (Fig. 5b source data) (HRH2; Log(10)Conc (M) -11): 91 and 32 and 56
HRH2 dose-response raw reporter signal (Fig. 5b source data) (HRH2; Log(10)Conc (M) -12): 53 and 71 and 59
HRH2 dose-response raw reporter signal (Fig. 5b source data) (HRH2; Log(10)Conc (M) -13): 38 (2×) and 85
HRH2 dose-response raw reporter signal (Fig. 5b source data) (HRH2; Log(10)Conc (M) -14): 38 and 65 and 56
HRH2 dose-response raw reporter signal (Fig. 5b source data) (HRH2; Log(10)Conc (M) -15): 32 and 41 and 83
activity towards HRH2 (HRH2; PRESTO-Tango dose-response): no activity
HRH3 dose-response raw reporter signal (Fig. 5b source data) (HRH3; Log(10)Conc (M) -4): 348 and 274 and 324
HRH3 dose-response raw reporter signal (Fig. 5b source data) (HRH3; Log(10)Conc (M) -5): 112 and 156 and 153
HRH3 dose-response raw reporter signal (Fig. 5b source data) (HRH3; Log(10)Conc (M) -6): 127 and 174 and 142
HRH3 dose-response raw reporter signal (Fig. 5b source data) (HRH3; Log(10)Conc (M) -7): 91 and 130 and 165
HRH3 dose-response raw reporter signal (Fig. 5b source data) (HRH3; Log(10)Conc (M) -8): 168 and 112 and 162
HRH3 dose-response raw reporter signal (Fig. 5b source data) (HRH3; Log(10)Conc (M) -9): 127 and 103 and 139
HRH3 dose-response raw reporter signal (Fig. 5b source data) (HRH3; Log(10)Conc (M) -10): 174 and 144 and 115
HRH3 dose-response raw reporter signal (Fig. 5b source data) (HRH3; Log(10)Conc (M) -11): 162 (2×) and 97
HRH3 dose-response raw reporter signal (Fig. 5b source data) (HRH3; Log(10)Conc (M) -12): 139 and 168 and 144
HRH3 dose-response raw reporter signal (Fig. 5b source data) (HRH3; Log(10)Conc (M) -13): 183 and 168 and 153
HRH3 dose-response raw reporter signal (Fig. 5b source data) (HRH3; Log(10)Conc (M) -14): 183 and 85 and 150
HRH3 dose-response raw reporter signal (Fig. 5b source data) (HRH3; Log(10)Conc (M) -15): 94 and 115 and 112
activity towards HRH3 (HRH3; PRESTO-Tango dose-response): no activity
HRH4 dose-response raw reporter signal (Fig. 5b source data) ([2]; Log(10)Conc (M) -5): 427 and 460
HRH4 dose-response raw reporter signal (Fig. 5b source data) ([2]; Log(10)Conc (M) -6): 342 and 348
HRH4 dose-response raw reporter signal (Fig. 5b source data) ([2]; Log(10)Conc (M) -7): 348 and 321
HRH4 dose-response raw reporter signal (Fig. 5b source data) ([2]; Log(10)Conc (M) -8): 410 and 321
HRH4 dose-response raw reporter signal (Fig. 5b source data) ([2]; Log(10)Conc (M) -9): 324 and 251
HRH4 dose-response raw reporter signal (Fig. 5b source data) ([2]; Log(10)Conc (M) -10): 377 and 368
HRH4 dose-response raw reporter signal (Fig. 5b source data) ([2]; Log(10)Conc (M) -11): 262 and 307
HRH4 dose-response raw reporter signal (Fig. 5b source data) ([2]; Log(10)Conc (M) -12): 407 and 336
HRH4 dose-response raw reporter signal (Fig. 5b source data) ([2]; Log(10)Conc (M) -13): 298 and 395
HRH4 dose-response raw reporter signal (Fig. 5b source data) ([2]; Log(10)Conc (M) -14): 268
HRH4 dose-response raw reporter signal (Fig. 5b source data) ([2]; Log(10)Conc (M) -15): 215 and 212
activity towards HRH4 ([2]; PRESTO-Tango dose-response): no activity

Source: publication PMC11480411, “Mucosal sugars delineate pyrazine vs pyrazinone autoinducer signaling in Klebsiella oxytoca” (Nature Communications, 2024)
